Results on 25 compounds are retold here after patent US8410112B2, “Compounds useful as inhibitors of ATR kinase” (Vertex Pharmaceuticals Incorporated, priority 2008, dated 2013).

Each structure is given as a SMILES string.

The experiment deals with T1, full-length ATR (Homo sapiens, UniProt Q13535).
T1 construct: in the presence of 5 nM full-length ATR
T1 sequence (Q13535 whole entry): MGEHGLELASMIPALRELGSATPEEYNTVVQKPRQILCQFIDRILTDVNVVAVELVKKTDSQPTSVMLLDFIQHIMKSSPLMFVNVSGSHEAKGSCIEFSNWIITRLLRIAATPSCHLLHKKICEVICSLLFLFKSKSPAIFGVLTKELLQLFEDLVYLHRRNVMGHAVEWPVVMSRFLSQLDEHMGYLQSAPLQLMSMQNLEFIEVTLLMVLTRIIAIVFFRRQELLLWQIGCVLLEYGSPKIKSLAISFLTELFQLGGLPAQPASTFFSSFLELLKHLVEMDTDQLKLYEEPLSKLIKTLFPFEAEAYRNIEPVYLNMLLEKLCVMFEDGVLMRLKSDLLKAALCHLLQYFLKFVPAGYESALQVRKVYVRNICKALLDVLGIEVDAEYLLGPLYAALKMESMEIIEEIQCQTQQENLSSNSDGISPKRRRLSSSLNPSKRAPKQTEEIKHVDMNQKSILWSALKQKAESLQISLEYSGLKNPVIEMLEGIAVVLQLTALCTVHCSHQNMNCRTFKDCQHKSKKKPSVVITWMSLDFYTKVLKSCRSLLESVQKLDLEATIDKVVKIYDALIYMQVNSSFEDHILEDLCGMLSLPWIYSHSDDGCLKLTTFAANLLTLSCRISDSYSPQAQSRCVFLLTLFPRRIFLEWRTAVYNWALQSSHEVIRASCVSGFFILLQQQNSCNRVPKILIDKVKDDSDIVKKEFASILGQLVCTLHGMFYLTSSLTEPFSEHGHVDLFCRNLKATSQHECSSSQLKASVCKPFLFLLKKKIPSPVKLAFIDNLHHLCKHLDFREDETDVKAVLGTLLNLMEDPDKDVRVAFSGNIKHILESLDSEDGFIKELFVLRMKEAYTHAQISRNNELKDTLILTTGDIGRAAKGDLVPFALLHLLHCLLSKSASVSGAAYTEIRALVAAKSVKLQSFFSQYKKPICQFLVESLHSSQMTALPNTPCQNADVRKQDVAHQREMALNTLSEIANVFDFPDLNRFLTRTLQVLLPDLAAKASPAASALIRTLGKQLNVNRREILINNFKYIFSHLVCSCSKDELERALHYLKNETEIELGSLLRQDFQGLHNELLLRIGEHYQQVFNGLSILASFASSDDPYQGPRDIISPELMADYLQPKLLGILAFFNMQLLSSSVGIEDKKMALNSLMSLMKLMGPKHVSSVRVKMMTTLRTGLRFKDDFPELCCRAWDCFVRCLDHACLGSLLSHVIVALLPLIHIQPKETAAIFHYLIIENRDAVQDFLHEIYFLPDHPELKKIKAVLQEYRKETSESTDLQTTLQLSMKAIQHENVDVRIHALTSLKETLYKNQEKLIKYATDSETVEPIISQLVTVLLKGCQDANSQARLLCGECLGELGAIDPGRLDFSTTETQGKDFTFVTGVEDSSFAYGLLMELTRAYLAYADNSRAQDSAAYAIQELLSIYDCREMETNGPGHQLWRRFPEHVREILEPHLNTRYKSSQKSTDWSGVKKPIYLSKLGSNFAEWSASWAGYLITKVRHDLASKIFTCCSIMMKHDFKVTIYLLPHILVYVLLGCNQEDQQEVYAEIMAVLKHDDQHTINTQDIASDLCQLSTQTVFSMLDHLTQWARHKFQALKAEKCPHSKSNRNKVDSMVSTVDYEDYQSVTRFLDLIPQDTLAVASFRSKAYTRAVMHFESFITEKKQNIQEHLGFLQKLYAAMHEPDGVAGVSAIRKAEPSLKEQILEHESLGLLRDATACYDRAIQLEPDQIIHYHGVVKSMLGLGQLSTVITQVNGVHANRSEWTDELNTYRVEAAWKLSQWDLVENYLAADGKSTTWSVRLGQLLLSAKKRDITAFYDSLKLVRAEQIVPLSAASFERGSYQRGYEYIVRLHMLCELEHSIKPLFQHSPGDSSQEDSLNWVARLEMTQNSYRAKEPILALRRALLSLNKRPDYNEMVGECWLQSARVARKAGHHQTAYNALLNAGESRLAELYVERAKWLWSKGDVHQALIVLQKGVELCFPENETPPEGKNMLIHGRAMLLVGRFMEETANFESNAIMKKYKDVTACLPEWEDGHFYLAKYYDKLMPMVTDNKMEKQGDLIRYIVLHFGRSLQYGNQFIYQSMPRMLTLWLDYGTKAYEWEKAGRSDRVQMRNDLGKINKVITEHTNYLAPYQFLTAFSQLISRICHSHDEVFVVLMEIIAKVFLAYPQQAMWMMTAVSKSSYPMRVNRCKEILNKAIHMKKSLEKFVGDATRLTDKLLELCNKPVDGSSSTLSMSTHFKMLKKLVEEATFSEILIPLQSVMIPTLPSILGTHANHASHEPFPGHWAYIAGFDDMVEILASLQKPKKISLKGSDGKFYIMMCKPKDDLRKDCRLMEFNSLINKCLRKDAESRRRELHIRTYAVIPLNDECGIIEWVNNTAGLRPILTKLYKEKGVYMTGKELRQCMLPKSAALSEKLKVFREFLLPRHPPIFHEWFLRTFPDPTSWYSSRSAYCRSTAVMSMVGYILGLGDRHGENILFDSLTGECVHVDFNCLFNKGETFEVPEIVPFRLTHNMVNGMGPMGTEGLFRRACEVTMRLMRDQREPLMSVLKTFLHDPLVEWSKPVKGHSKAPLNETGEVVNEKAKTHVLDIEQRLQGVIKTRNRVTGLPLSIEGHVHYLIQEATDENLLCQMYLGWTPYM
Kind of experiment: ATR Inhibition Assay (radioactive-phosphate incorporation). The experiment is classed as biochemical. The conditions noted are these: Ki(app); 5 nM full-length ATR, 10 μM ATP, 800 μM target peptide, 25° C. The gist of the method:
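Buffer was 50 mM Tris/HCl pH 7.5, 10 mM MgCl2, 1 mM DTT, with 5 nM enzyme, 10 μM [γ-33P]ATP and 800 μM target peptide at 25 °C. Compound was pre-incubated 10 min before ATP start, and the reaction was stopped after 24 h. Phosphocellulose filter capture; Ki(app) came from non-linear regression of background-corrected initial rates.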
Take `COCCOCC(=O)N1CCN(c2cnc(N)c(-c3nc4ccccc4[nH]3)n2)CC1` [Compound I-264, 1-(4-(5-amino-6-(1H-benzo[d]imidazol-2-yl)pyrazin-2-yl)piperazin-1-yl)-2-(2-methoxyethoxy)ethanone]: the Ki was 1 to 10 µM.
The result for `Nc1ncc(N2CC[C@H](NS(=O)(=O)c3ccccc3)C2)nc1-c1nc2ccccc2[nH]1` [Compound I-107, (S)-N-(1-(5-amino-6-(1H-benzo[d]imidazol-2-yl)pyrazin-2-yl)pyrrolidin-3-yl)benzenesulfonamide] reads 0.1 to 1 µM.
The result for `CC#CCOC(=O)N1CCN(c2cnc(N)c(-c3nc4ccccc4[nH]3)n2)CC1` [Compound I-272, but-2-ynyl 4-(5-amino-6-(1H-benzo[d]imidazol-2-yl)pyrazin-2-yl)piperazine-1-carboxylate] reads 1 to 10 µM.
The result for `CC(=O)N1CCCN(c2cnc(N)c(-c3nc4ccc(C)cc4[nH]3)n2)CC1` [Compound I-1, 1-(4-(5-amino-6-(6-methyl-1H-benzo[d]imidazol-2-yl)pyrazin-2-yl)-1,4-diazepan-1-yl)ethanone] reads 1 to 10 µM; that for `CC(=O)N[C@H]1CCN(c2cnc(N)c(-c3nc4ccccc4[nH]3)n2)C1` [Compound I-185, (S)-N-(1-(5-amino-6-(1H-benzo[d]imidazol-2-yl)pyrazin-2-yl)pyrrolidin-3-yl)ethanamide], 0.1 to 1 µM.
For the compound `Cc1ccc2nc(-c3nc(N4CCN(c5ncccc5C(F)(F)F)CC4)cnc3N)[nH]c2c1` [Compound I-52, 3-(6-methyl-1H-benzo[d]imidazol-2-yl)-5-(4-(3-(trifluoromethyl)pyridin-2-yl)piperazin-1-yl)pyrazin-2-amine], the Ki lay in the range of 1 to 10 µM.
With `CCS(=O)(=O)N1CCN(c2cnc(N)c(-c3nnc(-c4c(F)cccc4F)o3)n2)CC1` [Compound I-289, 3-[5-(2,6-difluorophenyl)-1,3,4-oxadiazol-2-yl]-5-(4-ethylsulfonylpiperazin-1-yl)pyrazin-2-amine], the Ki is 0.1 to 1 µM.
As for `CCS(=O)(=O)N1CCN(c2cnc(N)c(-c3nnc(-c4ccc(F)cc4)o3)n2)CC1` [Compound I-292, 5-(4-ethylsulfonylpiperazin-1-yl)-3-[5-(4-fluorophenyl)-1,3,4-oxadiazol-2-yl]pyrazin-2-amine], the figure is 0.1 to 1 µM.
As for `CS(=O)(=O)CCN1CCN(c2cnc(N)c(-c3nnc(-c4ccccc4)o3)n2)CC1` [Compound I-296, 5-[4-(2-methylsulfonylethyl)piperazin-1-yl]-3-(5-phenyl-1,3,4-oxadiazol-2-yl)pyrazin-2-amine], the Ki was 0.1 to 1 µM.
As for `CC(C)S(=O)(=O)N1CCN(c2cnc(N)c(-c3nc4ccccc4[nH]3)n2)CC1` [Compound I-97, 3-(1H-benzo[d]imidazol-2-yl)-5-(4-(isopropylsulfonyl)piperazin-1-yl)pyrazin-2-amine], the figure is 0.1 to 1 µM; as for `COCCOC(=O)N1CCN(c2cnc(N)c(-c3nc4ccccc4[nH]3)n2)CC1` [Compound I-266, 2-methoxyethyl 4-(5-amino-6-(1H-benzo[d]imidazol-2-yl)pyrazin-2-yl)piperazine-1-carboxylate], 1 to 10 µM; as for `CCS(=O)(=O)N1CC=C(c2cnc(N)c(C(=O)Nc3cccnc3OC)n2)CC1` [Compound I-165, 3-amino-6-(1-(ethylsulfonyl)-1,2,3,6-tetrahydropyridin-4-yl)-N-(2-methoxypyridin-3-yl)pyrazine-2-carboxamide], under 0.1 µM.
As for `Nc1ncc(N2CCC3(CCNC3)C2)nc1-c1nnc(-c2ccccc2)o1` (stereo not shown) [Compound I-340, 3-(5-Phenyl-1,3,4-oxadiazol-2-yl)-5-(2,7-diazaspiro[4.4]nonan-2-yl)pyrazin-2-amine], the Ki lay in the range of 1 to 10 µM.
As for `Nc1ncc(N2CCN(Cc3ccccc3)CC2)nc1-c1nnc(-c2ccccc2)o1` [Compound I-300, 5-(4-benzylpiperazin-1-yl)-3-(5-phenyl-1,3,4-oxadiazol-2-yl)pyrazin-2-amine], the figure is 1 to 10 µM; as for `CCS(=O)(=O)N1CCN(c2cnc(N)c(-c3noc(C)n3)n2)CC1` [Compound I-38, 5-(4-(ethylsulfonyl)piperazin-1-yl)-3-(5-methyl-1,2,4-oxadiazol-3-yl)pyrazin-2-amine], 1 to 10 µM.
The result for `CCOC(=O)N1CCN(c2cnc(N)c(-c3nc4ccccc4[nH]3)n2)CC1` [Compound I-271, ethyl 4-(5-amino-6-(1H-benzo[d]imidazol-2-yl)pyrazin-2-yl)piperazine-1-carboxylate] reads 1 to 10 µM; that for `CC(C)(C)C(=O)N1CCN(c2cnc(N)c(-c3nnc(-c4ccccc4)o3)n2)CC1` [Compound I-198, 1-(4-(5-amino-6-(5-phenyl-1,3,4-oxadiazol-2-yl)pyrazin-2-yl)piperazin-1-yl)-2,2-dimethylpropan-1-one], 0.1 to 1 µM; that for `CCC(=O)N1CCC2(CCN(c3cnc(N)c(-c4nnc(-c5ccc(CNC)cc5)o4)n3)C2)C1` (stereo not shown) [Compound I-342, 1-(7-(5-Amino-6-(5-(4-((methylamino)methyl)phenyl)-1,3,4-oxadiazol-2-yl)pyrazin-2-yl)-2,7-diazaspiro[4.4]nonan-2-yl)propan-1-one], 0.1 to 1 µM.
The result for `CCS(=O)(=O)N1CCN(c2cnc(N)c(-c3nnc(-c4cccs4)o3)n2)CC1` [Compound I-312, 5-(4-ethylsulfonylpiperazin-1-yl)-3-[5-(2-thienyl)-1,3,4-oxadiazol-2-yl]pyrazin-2-amine] reads 0.1 to 1 µM; that for `Nc1ncc(C2=CCN(C(=O)c3ccccn3)CC2)nc1-c1nnc(-c2ccccc2)o1` [Compound I-132, (4-(5-amino-6-(5-phenyl-1,3,4-oxadiazol-2-yl)pyrazin-2-yl)-5,6-dihydropyridin-1(2H)-yl)(pyridin-2-yl)methanone], under 0.1 µM.
With `Nc1ncc(N2CCN(S(=O)(=O)c3ccoc3)CC2)nc1-c1nnc(-c2ccccc2)o1` [Compound I-90, 5-(4-(furan-3-ylsulfonyl)piperazin-1-yl)-3-(5-phenyl-1,3,4-oxadiazol-2-yl)pyrazin-2-amine], the Ki was 0.1 to 1 µM.
As for `Nc1ncc(C2=CCN(C(=O)N3CCNCC3)CC2)nc1-c1nc2ccccc2[nH]1` [Compound I-280, (4-(5-amino-6-(1H-benzo[d]imidazol-2-yl)pyrazin-2-yl)-5,6-dihydropyridin-1(2H)-yl)(piperazin-1-yl)methanone], the figure is 0.1 to 1 µM; as for `CCC(=O)N1CC=C(c2cnc(N)c(-c3nnc(-c4ccc(CNC)cc4)o3)n2)CC1` [Compound I-335, 1-[4-[5-Amino-6-[5-[4-(methylaminomethyl)phenyl]-1,3,4-oxadiazol-2-yl]pyrazin-2-yl]-3,6-dihydro-2H-pyridin-1-yl]propan-1-one], 0.1 to 1 µM.
As for `CNCc1ccc(-c2nnc(-c3nc(N4CCC5(CCNC5=O)CC4)cnc3N)o2)cc1` [Compound I-360, 8-(5-Amino-6-(5-(4-((methylamino)methyl)phenyl)-1,3,4-oxadiazol-2-yl)pyrazin-2-yl)-2,8-diazaspiro[4.5]decan-1-one], the figure is 0.1 to 1 µM.
As for `Cc1ccc2nc(-c3nc(N4CCNC(=O)C4)cnc3N)[nH]c2c1` [Compound I-7, 4-(5-amino-6-(6-methyl-1H-benzo[d]imidazol-2-yl)pyrazin-2-yl)piperazin-2-one], the figure is 0.1 to 1 µM.
